Tests used:
MDA-MB-453 [1] = conditions: 72 h
Summary of the method: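 Each 384-well plate was pre-loaded with compound dissolved in 5 µl medium, received breast cancer cells in 20 µl suspension, and was incubated 72 h. A 2.5 µl addition of CellTiter-Blue for 2 h at 37 °C was followed by a fluorescence read at 560/590 nm. Data were normalised per plate to vehicle and a positive kill control and checked by Z'-factor. EC50 was fitted from the percent-inhibition dose-response curve, censored at the highest concentration, excluding rows with a drug sensitivity score of zero.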

MDA-MB-453 [2] = conditions: 72 h; remark: listed apart in the source
Summary of the method: (§1)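 Breast cancer cell lines (20 µl suspension) were seeded into 384-well plates holding compound at 5 concentrations in 10-fold steps over a compound-specific 10,000-fold range, then incubated 72 h. Cell death was read first by CellTox Green fluorescence (485/520 nm), then viability by CellTiter-Glo luminescence after 10 min at room temperature. Each plate was normalised to 0.1 % DMSO and a positive kill control. EC50 was fitted from the dose-response curves and censored at the top concentration.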

HCC1937 = conditions: 72 h
Summary of the method: as §1

MDA-MB-231 = conditions: 72 h
Summary of the method: as §1

MDA-MB-436 [3] = conditions: 72 h
Summary of the method: as §1

BT-549 [4] = conditions: 72 h
Summary of the method: as §1

BT-474 [5] = conditions: 72 h
Summary of the method: as §1

CAL-51 [6] = conditions: 72 h
Summary of the method: as §1

SK-BR-3 [7] = conditions: 72 h
Summary of the method: as §1

CAL-85-1 [8] = conditions: 72 h
Summary of the method: as §1

MCF-10A = conditions: 72 h
Summary of the method: as §1

MDA-MB-468 = conditions: 72 h
Summary of the method: as §1

MDA-MB-453 [9] = experiment: normalised viability (% of control), CellTiter-Blue; higher = more viable cells (about 100 = DMSO control); conditions: 10000 nM; incubation time: 72 h
Protocol: (§2)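 DSRT, CellTiter-Blue viability, 72 h incubation. Signal is normalised to DMSO and benzethonium chloride controls. Value is the normalised response at dose 9.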

CAL-148 [10] = experiment: as above; conditions: 10000 nM; incubation time: 72 h
Protocol: as §2

HDQ-P1 [11] = experiment: as above; conditions: 10000 nM; incubation time: 72 h
Protocol: as §2

CAL-51 [12] = experiment: as above; conditions: 10000 nM; incubation time: 72 h
Protocol: as §2

CAL-85-1 [13] = experiment: as above; conditions: 10000 nM; incubation time: 72 h
Protocol: as §2

DU-4475 [14] = experiment: as above; conditions: 10000 nM; incubation time: 72 h
Protocol: as §2

MDA-MB-453 [15] = experiment: as above; conditions: 300 nM; incubation time: 72 h
Protocol: (§3)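 DSRT, CellTiter-Blue viability, 72 h incubation. Signal is normalised to DMSO and benzethonium chloride controls. Value is the normalised response at dose 6.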

CAL-148 [16] = experiment: as above; conditions: 300 nM; incubation time: 72 h
Protocol: as §3

HDQ-P1 [17] = experiment: as above; conditions: 300 nM; incubation time: 72 h
Protocol: as §3

CAL-51 [18] = experiment: as above; conditions: 300 nM; incubation time: 72 h
Protocol: as §3

CAL-85-1 [19] = experiment: as above; conditions: 300 nM; incubation time: 72 h
Protocol: as §3

DU-4475 [20] = experiment: as above; conditions: 300 nM; incubation time: 72 h
Protocol: as §3

MDA-MB-453 [21] = experiment: as above; conditions: 10 nM; incubation time: 72 h
Protocol: (§4)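 DSRT, CellTiter-Blue viability, 72 h incubation. Signal is normalised to DMSO and benzethonium chloride controls. Value is the normalised response at dose 3.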

CAL-148 [22] = experiment: as above; conditions: 10 nM; incubation time: 72 h
Protocol: as §4

HDQ-P1 [23] = experiment: as above; conditions: 10 nM; incubation time: 72 h
Protocol: as §4

MDA-MB-436 [24] = experiment: as above; conditions: 100 nM; incubation time: 72 h
Protocol: as §4

HCC1599 = experiment: as above; conditions: 100 nM; incubation time: 72 h
Protocol: as §4

BT-549 [25] = experiment: as above; conditions: 100 nM; incubation time: 72 h
Protocol: as §4

HCC1143 = experiment: as above; conditions: 100 nM; incubation time: 72 h
Protocol: as §4

BT-474 [26] = experiment: as above; conditions: 100 nM; incubation time: 72 h
Protocol: as §4

SK-BR-3 [27] = experiment: as above; conditions: 100 nM; incubation time: 72 h
Protocol: as §4

CCCCCCCCc1ccc(CCC(N)(CO)CO)cc1 [Fingolimod]
EC50, CellTiter-Blue viability (MDA-MB-453 [1]): 5.4 µM
EC50, CellTiter-Glo (MDA-MB-453 [2]): 3.37 µM
EC50, CellTiter-Glo (HCC1937): 3.9 µM
EC50, CellTiter-Glo (MDA-MB-231): 2.8 µM
EC50, CellTiter-Glo (MDA-MB-436 [3]): 4.81 µM
EC50, CellTiter-Glo (BT-549 [4]): 4.44 µM
EC50, CellTiter-Glo (BT-474 [5]): 2.87 µM
EC50, CellTiter-Glo (CAL-51 [6]): 2.04 µM
EC50, CellTiter-Glo (SK-BR-3 [7]): 3.33 µM
EC50, CellTiter-Glo (CAL-85-1 [8]): 3.34 µM
EC50, CellTiter-Glo (MCF-10A): 3.35 µM
EC50, CellTiter-Glo (MDA-MB-468): 3.05 µM
normalised viability (MDA-MB-453 [9]): 2.6%
normalised viability (CAL-148 [10]): 62.2%
normalised viability (HDQ-P1 [11]): 0.67%
normalised viability (CAL-51 [12]): 91.8%
normalised viability (CAL-85-1 [13]): 4.87%
normalised viability (DU-4475 [14]): 136%
normalised viability (MDA-MB-453 [15]): 107%
normalised viability (CAL-148 [16]): 93.7%
normalised viability (HDQ-P1 [17]): 87.4%
normalised viability (CAL-51 [18]): 113%
normalised viability (CAL-85-1 [19]): 93.1%
normalised viability (DU-4475 [20]): 99.3%
normalised viability (MDA-MB-453 [21]): 108%
normalised viability (CAL-148 [22]): 87.3%
normalised viability (HDQ-P1 [23]): 119%
normalised viability (MDA-MB-436 [24]): 101%
normalised viability (HCC1599): 93.9%
normalised viability (BT-549 [25]): 117%
normalised viability (HCC1143): 106%
normalised viability (BT-474 [26]): 119%
normalised viability (SK-BR-3 [27]): 85.8%
